The target in one test is T1, NA transporter (Rattus norvegicus, UniProt Q63380).
T1 construct: from tissue; host or cells: rat hypothalamus synaptosomes (P2 fraction)
The test is described as follows: Noradrenaline (NA) uptake inhibition in rat brain synaptosomes (hypothalamus), [3H]-NA. Conditions: conc. 10 μM. The test is classed as biochemical. From the text:
(§1) I. Method for Determining the Noradrenaline and 5HT Uptake Inhibition:
(§2) For in vitro studies, synaptosomes were freshly isolated from rat brain areas as described in the publication “The isolation of nerve endings from brain” by E. G. Gray and V. P. Whittaker, J. Anatomy 96, pages 79-88, 1962. The corresponding literature description is introduced hereby as reference and forms part of the disclosure.
(§3) The tissue (hypothalamus for determining the noradrenaline uptake inhibition and medulla and pons for determining the 5HT uptake inhibition) was homogenized in ice-cold 0.32 M sucrose (100 mg of tissue/1 ml) in a glass homogenizer with Teflon pestle using five full up and down strokes at 840 revolutions/minute. The homogenate was centrifuged at 1000 g and at 4° C. for 10 minutes. After subsequent centrifugation at 17 000 g for 55 minutes, the synaptosomes (P2 fraction) are obtained and were resuspended in 0.32 M […] (0.5 ml/100 mg of the original weight).
(§4) The respective uptake was measured in a 96-well microtiter plate. The volume was 250 μl and incubation took place at room temperature (approx. 20-25° C.) under an O2 atmosphere.
(§5) The incubation time was 7.5 minutes for [^3H]-NA and 5 minutes for [^3H]-5-HT. The 96 samples were then filtered through a Unifilter GF/B® microtiter plate (Packard) and washed with […] of incubated buffer using a “Brabdel MPXRI-96T Cell Harvester”. The Unifilter GF/B plate was dried at 55° C. for 1 h. The plate was then sealed with a Back Seal® (Packard) and 35 μl of scintillation fluid were added per well (Ultima Gold®, Packard). After sealing with a top Seal® (Packard), the radioactivity was determined, after equilibrium had been reached (about 5 h), in a “Trilux 1450 Microbeta” (Wallac).
The following characteristic data were found for the NA transporter:
(§6) The amount of protein employed in the above determination corresponded to the value disclosed in the literature, as described for example in “Protein measurement with the folin phenol reagent”, Lowry et al., J. Biol. Chem., 193, 265-275, 1951. A detailed description of the method can also be found in the literature, for example from M. Ch. Frink, H.-H. Hennies, W. Engelberger, M. Haurand and B. Wilffert (1996) Arzneim.-Forsch./Drug Res. 46 (III), 11, 1029-1036. The corresponding literature descriptions are hereby introduced as reference and form part of the disclosure.

The target of test [1] is T2, 5-HT uptake (serotonin reuptake) (Rattus norvegicus, UniProt P31652).
T2 construct: from tissue; host or cells: rat medulla and pons synaptosomes (P2 fraction)
Briefly: 5HT uptake inhibition in rat brain synaptosomes (medulla and pons), [3H]-5-HT. The test is classed as biochemical. As to conditions: conc. 10 μM.
Source text: as §1, §2, §3, §4, §5, §6

In a further test the target is T3, mGluR5 receptor (Sus scrofa, UniProt I3LUI7).
T3 construct: 450 μg of protein from brain homogenate are incubated with 5 nM^3[H]-MPEP; from tissue; host or cells: pig brain hemispheres without medulla, cerebellum and pons
The test is described as follows: Affinity for the mGluR5 receptor: displacement of 3[H]-MPEP binding in pig brain homogenate. Conditions: 10 μM compound, 5 nM 3[H]-MPEP. In a few lines: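 Pig brain homogenate (450 μg protein) incubated with 5 nM 3[H]-MPEP and test compound at 10 μM for 60 min at room temperature. Displacement of radioligand binding measured after filtration.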

Inhibition data for three compounds are collected here from patent US20080312301A1, “Substituted N-Benzo[D]Isoxazol-3-Yl-Amine Compounds as Inhibitors of Mglur5, Serotonin (5-Ht) and Noradrenaline Receptors, and Uses Thereof” (Gruenenthal GmbH, priority 2005, published 2008).

A word on the inhibition: it is the share of the control response that was lost under treatment. Read a low inhibition as little suppression.

T2 sequence (P31652 whole entry): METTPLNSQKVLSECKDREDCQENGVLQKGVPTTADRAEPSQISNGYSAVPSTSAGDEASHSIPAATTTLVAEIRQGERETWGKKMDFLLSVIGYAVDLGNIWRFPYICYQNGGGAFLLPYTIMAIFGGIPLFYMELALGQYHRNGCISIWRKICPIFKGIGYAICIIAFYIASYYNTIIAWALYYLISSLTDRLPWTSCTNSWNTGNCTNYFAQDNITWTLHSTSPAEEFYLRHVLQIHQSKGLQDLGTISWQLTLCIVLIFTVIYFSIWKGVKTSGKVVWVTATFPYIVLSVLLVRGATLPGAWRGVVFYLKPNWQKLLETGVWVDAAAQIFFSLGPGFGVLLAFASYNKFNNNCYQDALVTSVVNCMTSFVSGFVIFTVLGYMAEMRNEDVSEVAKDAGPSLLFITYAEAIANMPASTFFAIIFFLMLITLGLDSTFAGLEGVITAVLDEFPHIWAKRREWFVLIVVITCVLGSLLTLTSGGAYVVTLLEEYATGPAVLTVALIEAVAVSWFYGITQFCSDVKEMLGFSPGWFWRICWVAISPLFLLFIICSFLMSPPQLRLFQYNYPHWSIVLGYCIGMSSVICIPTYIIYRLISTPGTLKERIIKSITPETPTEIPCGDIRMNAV
T3 sequence (I3LUI7 19-1212): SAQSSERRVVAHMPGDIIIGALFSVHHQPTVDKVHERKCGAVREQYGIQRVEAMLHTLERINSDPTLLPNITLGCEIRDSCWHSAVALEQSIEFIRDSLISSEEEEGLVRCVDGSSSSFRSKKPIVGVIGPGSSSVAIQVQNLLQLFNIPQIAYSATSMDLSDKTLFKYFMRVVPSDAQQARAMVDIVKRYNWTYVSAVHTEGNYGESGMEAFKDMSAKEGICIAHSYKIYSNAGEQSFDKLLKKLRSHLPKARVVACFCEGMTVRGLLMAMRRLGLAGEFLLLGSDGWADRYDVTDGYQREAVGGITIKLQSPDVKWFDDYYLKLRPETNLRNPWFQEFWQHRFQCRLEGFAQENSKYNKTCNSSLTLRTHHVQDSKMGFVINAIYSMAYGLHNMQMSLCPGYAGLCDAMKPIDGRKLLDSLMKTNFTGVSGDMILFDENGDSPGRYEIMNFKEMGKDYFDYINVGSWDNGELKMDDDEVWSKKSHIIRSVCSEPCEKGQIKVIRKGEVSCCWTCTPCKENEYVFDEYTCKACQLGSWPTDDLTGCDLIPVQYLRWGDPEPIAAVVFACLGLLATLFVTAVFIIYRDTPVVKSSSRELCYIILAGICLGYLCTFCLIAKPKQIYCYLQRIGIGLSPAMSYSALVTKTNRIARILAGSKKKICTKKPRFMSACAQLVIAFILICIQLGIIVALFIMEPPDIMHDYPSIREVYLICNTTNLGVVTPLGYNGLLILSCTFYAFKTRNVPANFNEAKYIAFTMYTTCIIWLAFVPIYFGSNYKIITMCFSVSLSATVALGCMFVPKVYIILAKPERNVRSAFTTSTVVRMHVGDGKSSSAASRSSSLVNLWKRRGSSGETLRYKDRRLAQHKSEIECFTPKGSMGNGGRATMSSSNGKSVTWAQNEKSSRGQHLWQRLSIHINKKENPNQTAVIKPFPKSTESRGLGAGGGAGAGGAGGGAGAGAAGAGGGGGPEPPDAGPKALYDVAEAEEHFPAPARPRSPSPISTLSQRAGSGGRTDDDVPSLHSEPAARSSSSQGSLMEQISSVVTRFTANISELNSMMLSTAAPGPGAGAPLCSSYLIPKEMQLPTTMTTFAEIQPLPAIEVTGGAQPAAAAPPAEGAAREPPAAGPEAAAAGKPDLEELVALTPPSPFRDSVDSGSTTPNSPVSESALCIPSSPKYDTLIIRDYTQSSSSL
T1 sequence (Q63380 1-617): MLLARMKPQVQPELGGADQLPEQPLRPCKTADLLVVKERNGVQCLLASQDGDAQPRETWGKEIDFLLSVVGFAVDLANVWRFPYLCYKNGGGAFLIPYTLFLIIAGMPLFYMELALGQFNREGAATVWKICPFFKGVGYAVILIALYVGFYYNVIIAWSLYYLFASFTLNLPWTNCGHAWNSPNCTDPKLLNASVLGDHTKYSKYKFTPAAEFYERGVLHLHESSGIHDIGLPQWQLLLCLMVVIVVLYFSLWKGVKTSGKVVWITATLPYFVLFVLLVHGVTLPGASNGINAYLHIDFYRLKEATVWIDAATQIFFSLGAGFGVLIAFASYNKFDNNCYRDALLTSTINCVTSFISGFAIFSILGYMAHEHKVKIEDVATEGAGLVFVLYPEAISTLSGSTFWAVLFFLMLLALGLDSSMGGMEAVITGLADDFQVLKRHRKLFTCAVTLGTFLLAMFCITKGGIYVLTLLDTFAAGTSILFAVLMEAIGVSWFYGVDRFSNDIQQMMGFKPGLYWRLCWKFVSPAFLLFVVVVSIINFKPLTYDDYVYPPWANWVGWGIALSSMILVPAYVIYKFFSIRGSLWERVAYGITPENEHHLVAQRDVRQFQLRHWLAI

For `O=C(Nc1noc2cc(Cl)ccc12)c1cccc(C(F)(F)F)c1F` [Example 19, N-(6-chlorobenzo[d]isoxazol-3-yl)-2-fluoro-3-trifluoromethylbenzamide], the inhibition at 10 µM against NA transporter was found to be 63%; in test [1], 77%.

Take `O=C(Nc1noc2cccc(OCC(F)(F)F)c12)c1ccccc1Br` [Example 36, 2-bromo-N-[4-(2,2,2-trifluoroethoxy)benzo[d]isoxazol-3-yl]benzamide]: the inhibition at 10 µM in test [1] was 84%; at mGluR5 receptor, 30.3%.

Consider `COc1ccccc1C(=O)Nc1noc2cccc(OCC(F)(F)F)c12` [Example 39, 2-methoxy-N-[4-(2,2,2-trifluoroethoxy)benzo[d]isoxazol-3-yl]benzamide], for which the inhibition at 10 µM worked out at 82% in test [1] and 30.5% on mGluR5 receptor.
